Experimental data published in US8933232B2, “1,3,4-oxadiazole and 1,3,4-thiadiazole beta-lactamase inhibitors” (priority 2012, dated 2015).
Counter-ions that a name gives are not always drawn.

Tested on: bacterial strains that express KPC β-lactamases
Assay: Synergy MIC / standard BLI potentiation MIC assay against strains expressing KPC β-lactamases
Assay type: cell-based
Details: in the presence of a β-lactam; comparator Avibactam
How it was run: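 Broth microdilution per modified CLSI M07-A9 in CAMHB, ~10^5 CFU/mL, 18-20 h at 37 °C with aeration; engineered E. coli carrying cloned β-lactamase plasmids kept in 25 μg/mL tetracycline. β-Lactam MIC read with BLI fixed at 4 μg/mL, or BLI serially diluted against fixed β-lactam; MIC = lowest concentration without visible turbidity.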

N[C@H]1C[C@@H](c2nnc([C@@H]3CC[C@@H]4CN3C(=O)N4OS(=O)(=O)O)s2)C1 [Compound 795, (2S,5R)-2-(5-((1s,3R)-3-aminocyclobutyl)-1,3,4-thiadiazol-2-yl)-7-oxo-1,6-diazabicyclo[3.2.1]octan-6-yl hydrogen sulfate]
more active than Avibactam for at least one bacterial strain that expresses KPC β-lactamase and/or better spectrum of activity against KPC strains: more active than Avibactam
